target: human factor Xa (FXa) (Homo sapiens, UniProt P00742); test: Determination of the factor Xa inhibition (chromogenic substrate); assay type: biochemical; settings: human FXa 0.5 nmol/l, 150 μmol/l Pefachrome FXa, 25° C., pH 8.3
Experimental: The enzymatic activity of human factor Xa (FXa) is measured using the conversion of a chromogenic substrate specific for FXa. Factor Xa cleaves p-nitroaniline from the chromogenic substrate. The determinations are carried out in microtiter plates as follows:
The test substances, in various concentrations, are dissolved in DMSO and incubated for 10 minutes at 25° C. with human FXa (0.5 nmol/l dissolved in 50 mmol/l of Tris buffer [C,C,C-tris(hydroxymethyl)aminomethane], 150 mmol/l of NaCl, 0.1% BSA [bovine serum albumin], pH=8.3). Pure DMSO is used as control. The chromogenic substrate (150 μmol/l Pefachrome® FXa from Pentapharm) is then added. After an incubation time of 20 minutes at 25° C., the extinction at 405 nm is determined.

Chain of human factor Xa (FXa) (P00742 235-488 limits assumed): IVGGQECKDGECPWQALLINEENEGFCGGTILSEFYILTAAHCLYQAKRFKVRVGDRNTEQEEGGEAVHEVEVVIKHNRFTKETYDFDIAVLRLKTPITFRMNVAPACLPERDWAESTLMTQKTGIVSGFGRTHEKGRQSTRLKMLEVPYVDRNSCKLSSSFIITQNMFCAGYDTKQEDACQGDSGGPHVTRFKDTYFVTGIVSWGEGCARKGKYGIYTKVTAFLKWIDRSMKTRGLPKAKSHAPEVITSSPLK
Chain of human factor Xa (FXa) (P00742 41-179 partner limits assumed): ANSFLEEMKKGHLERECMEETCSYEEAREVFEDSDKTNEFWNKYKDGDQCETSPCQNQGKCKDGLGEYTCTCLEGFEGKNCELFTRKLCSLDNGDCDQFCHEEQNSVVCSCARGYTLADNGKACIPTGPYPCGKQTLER

IC50 | Compound
6.3 nM | N=C1OCCN1c1ccc(NC(=O)c2ccncc2NC(=O)c2ccc(Cl)s2)cc1 [Example 11, 3-{[(5-Chloro-2-thienyl)carbonyl]amino}-N-[4-(2-imino-1,3-oxazolidin-3-yl)phenyl]isonicotinamide methanesulfonate]
2.2 nM | N=C1OCCN1c1ccc(NC(=O)c2cscc2NC(=O)c2ccc(Cl)s2)cc1 [Example 16, 5-Chloro-N-[4-({[4-(2-imino-1,3-oxazolidin-3-yl)phenyl]amino}carbonyl)-3-thienyl]thiophene-2-carboxamide methanesulfonate]
0.91 nM | CSc1nc(NC(=O)c2ccc(Cl)s2)c(C(=O)Nc2ccc(N3CCOC3=N)cc2)s1 [Example 24, 4-{[(5-Chloro-2-thienyl)carbonyl]amino}-N-[4-(2-imino-1,3-oxazolidin-3-yl)phenyl]-2-(methyl-thio)-1,3-thiazole-5-carboxamide methanesulfonate]
1.1 nM | N=C1OCCN1c1ccc(NC(=O)c2ccc(C(F)(F)F)cc2NC(=O)c2ccc(Cl)s2)cc1 [Example 3, 5-Chloro-N-[2-({[4-(2-imino-1,3-oxazolidin-3-yl)phenyl]amino}carbonyl)-5-(trifluoromethyl)-phenyl]thiophene-2-carboxamide methanesulfonate]
0.66 nM | Cc1cc(NC(=O)c2ccc(Cl)s2)c(C(=O)Nc2ccc(N3CCOC3=N)cc2)cc1N(C)C [Example 20, 5-Chloro-N-[4-(dimethylamino)-2-({[4-(2-imino-1,3-oxazolidin-3-yl)phenyl]amino}carbonyl)-5-methylphenyl]thiophene-2-carboxamide methanesulfonate]
